# Assay results reported in PMC11606603, “The membrane domains of mammalian adenylyl cyclases are lipid receptors” (eLife, 2024).
# Values joined by “and” are separate entries in the source; they are usually repeats but may differ in a detail not shown here. Equal entries are not always repeated.
# How the values were obtained:
# HEK-mAC1 = target: T1, HEK-mAC1 (Homo sapiens, UniProt Q08828); assay: cAMP accumulation assay, isoproterenol-stimulated HEK-mAC1 cells; type: cell-based; details: for cAMP level (%); 100%= 10µM Isoproterenol stimulation: single experiments
# T1 construct: Human mAC genes were from GenScript and fitted with a C-terminal FLAG-tag; FLAG (C); expressed in transfected cells; host or cells: HEK293, permanently transfected
# T1 sequence (Q08828 whole entry): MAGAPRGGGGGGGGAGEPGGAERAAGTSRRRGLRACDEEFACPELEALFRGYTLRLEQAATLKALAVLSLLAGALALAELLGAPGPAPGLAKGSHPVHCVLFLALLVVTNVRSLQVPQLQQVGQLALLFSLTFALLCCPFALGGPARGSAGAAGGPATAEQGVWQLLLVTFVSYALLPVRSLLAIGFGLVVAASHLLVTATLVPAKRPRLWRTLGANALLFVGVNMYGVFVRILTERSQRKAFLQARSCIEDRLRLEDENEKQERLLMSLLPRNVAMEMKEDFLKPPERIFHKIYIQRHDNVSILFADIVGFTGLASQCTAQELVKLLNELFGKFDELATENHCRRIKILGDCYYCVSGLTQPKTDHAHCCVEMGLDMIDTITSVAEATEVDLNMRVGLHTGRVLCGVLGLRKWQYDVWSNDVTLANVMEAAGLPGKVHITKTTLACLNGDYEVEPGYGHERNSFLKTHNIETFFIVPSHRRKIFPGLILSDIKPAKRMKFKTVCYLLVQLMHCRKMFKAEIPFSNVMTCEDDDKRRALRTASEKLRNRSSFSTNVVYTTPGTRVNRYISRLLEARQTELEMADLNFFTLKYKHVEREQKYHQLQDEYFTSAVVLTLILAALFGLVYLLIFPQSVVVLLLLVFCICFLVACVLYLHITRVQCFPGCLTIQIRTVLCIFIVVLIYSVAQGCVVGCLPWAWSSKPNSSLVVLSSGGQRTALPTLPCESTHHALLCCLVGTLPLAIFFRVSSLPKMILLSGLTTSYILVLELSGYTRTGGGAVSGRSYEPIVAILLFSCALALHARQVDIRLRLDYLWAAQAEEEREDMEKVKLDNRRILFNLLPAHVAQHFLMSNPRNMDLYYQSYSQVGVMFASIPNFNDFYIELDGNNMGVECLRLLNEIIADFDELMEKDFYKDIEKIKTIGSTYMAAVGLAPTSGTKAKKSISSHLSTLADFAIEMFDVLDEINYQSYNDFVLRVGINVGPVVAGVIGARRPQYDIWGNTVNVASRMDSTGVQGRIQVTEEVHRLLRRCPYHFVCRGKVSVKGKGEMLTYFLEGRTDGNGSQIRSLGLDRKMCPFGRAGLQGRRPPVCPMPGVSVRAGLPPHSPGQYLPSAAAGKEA
# HEK-mAC4 = target: T2, HEK-mAC4 (Homo sapiens, UniProt Q8NFM4); assay: cAMP accumulation assay, isoproterenol-stimulated HEK-mAC4 cells; type: cell-based; details: for cAMP level (%); 100%= 10µM Isoproterenol stimulation: single experiments
# T2 construct: Human mAC genes were from GenScript and fitted with a C-terminal FLAG-tag; FLAG (C); expressed in transfected cells; host or cells: HEK293, permanently transfected
# T2 sequence (Q8NFM4 1-1077): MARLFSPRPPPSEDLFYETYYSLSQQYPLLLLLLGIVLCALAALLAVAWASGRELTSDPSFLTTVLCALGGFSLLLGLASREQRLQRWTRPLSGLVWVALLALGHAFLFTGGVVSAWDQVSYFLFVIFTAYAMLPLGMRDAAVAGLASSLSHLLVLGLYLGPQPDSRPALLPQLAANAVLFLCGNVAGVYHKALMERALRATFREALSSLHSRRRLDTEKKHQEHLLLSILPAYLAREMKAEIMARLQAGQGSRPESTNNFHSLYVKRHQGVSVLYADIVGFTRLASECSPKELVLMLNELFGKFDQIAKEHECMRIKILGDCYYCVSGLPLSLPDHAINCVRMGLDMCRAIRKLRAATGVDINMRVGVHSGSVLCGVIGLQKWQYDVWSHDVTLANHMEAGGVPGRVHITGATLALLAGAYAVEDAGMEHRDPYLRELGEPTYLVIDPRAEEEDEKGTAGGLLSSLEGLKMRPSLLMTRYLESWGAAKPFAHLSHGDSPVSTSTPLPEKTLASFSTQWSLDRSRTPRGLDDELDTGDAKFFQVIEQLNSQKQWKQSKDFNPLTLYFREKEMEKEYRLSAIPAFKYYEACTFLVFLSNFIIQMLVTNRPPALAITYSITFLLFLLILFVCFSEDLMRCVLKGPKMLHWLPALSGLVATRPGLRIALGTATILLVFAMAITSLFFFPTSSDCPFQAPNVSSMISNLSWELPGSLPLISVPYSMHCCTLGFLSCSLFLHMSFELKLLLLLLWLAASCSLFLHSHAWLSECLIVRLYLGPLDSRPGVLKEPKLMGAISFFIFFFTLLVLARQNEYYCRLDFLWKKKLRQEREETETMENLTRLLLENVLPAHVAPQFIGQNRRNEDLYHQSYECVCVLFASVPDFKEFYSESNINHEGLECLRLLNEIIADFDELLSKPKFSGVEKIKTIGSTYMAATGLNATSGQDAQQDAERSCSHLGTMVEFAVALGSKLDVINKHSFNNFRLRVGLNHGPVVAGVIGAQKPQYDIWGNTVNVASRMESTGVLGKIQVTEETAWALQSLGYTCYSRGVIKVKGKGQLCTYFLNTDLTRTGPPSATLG
# mAC7 = target: T3, mAC7 (Homo sapiens, UniProt P51828); assay: AC assay, Gsα-stimulated mAC7 in membranes from transfected HEK293 cells; type: biochemical
# T3 construct: Human mAC genes were from GenScript and fitted with a C-terminal FLAG-tag; FLAG (C); made in house; host or cells: HEK293, permanently transfected; membrane preparation
# T3 sequence (P51828 whole entry): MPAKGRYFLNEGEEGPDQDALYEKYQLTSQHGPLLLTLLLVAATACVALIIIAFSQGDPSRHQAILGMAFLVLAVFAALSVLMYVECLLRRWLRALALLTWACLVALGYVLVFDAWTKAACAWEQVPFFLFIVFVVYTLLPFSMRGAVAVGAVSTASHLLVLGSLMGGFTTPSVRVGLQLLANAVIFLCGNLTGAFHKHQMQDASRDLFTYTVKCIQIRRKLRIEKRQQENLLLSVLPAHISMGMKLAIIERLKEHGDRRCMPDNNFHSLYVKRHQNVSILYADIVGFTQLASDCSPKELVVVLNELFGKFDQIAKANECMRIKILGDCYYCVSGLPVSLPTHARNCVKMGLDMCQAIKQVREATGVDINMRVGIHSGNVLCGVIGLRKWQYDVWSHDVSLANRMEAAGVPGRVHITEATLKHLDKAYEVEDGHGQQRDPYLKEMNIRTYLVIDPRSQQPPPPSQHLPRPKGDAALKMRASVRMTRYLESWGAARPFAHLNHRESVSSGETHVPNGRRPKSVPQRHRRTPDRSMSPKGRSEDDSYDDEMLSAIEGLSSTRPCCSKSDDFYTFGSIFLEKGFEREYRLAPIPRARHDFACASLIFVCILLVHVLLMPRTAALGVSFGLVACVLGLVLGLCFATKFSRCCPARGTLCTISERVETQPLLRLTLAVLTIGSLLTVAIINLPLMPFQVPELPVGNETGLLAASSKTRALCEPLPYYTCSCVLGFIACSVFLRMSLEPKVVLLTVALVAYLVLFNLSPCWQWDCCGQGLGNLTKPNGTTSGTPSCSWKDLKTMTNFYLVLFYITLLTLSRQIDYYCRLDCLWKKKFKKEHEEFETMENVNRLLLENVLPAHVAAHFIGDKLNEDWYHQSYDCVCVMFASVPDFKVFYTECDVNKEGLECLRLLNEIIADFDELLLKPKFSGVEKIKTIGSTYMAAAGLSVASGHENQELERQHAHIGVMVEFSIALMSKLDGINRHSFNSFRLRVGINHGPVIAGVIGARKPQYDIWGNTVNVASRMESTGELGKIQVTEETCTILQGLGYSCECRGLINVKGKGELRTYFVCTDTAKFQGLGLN
# T3 sequence (P63092 2-394 Q227L partner): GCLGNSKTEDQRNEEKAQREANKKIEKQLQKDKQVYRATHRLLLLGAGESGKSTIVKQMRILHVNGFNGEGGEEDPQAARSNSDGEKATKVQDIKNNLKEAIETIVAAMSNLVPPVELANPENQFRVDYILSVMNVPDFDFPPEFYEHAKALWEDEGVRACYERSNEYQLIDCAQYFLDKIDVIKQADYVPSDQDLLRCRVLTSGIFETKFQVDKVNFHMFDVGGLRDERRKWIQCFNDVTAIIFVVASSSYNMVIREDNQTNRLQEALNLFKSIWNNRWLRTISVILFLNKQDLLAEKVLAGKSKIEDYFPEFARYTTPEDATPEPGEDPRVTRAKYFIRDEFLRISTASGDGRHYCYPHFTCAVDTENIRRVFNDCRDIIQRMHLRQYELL
# Summary of the method: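 Adenylyl cyclase activity was measured in 100,000 × g membrane fractions prepared from HEK293 cells permanently transfected with C-terminally FLAG-tagged human AC isoforms. Assays contained 1 mM ATP and 2 mM MgCl2 with an ATP-regenerating system at pH 7.5.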
# mAC1-C1/mAC2-C2 = assay: AC assay, Gsα-stimulated soluble catalytic dimer; type: biochemical
# Experimental: In a volume of 10 μl, AC activities were measured using 1 mM ATP, 2 mM MgCl2, 3 mM creatine phosphate, 60 μg/ml creatine kinase, and 50 mM MOPS pH 7.5. The cAMP assay kit from Cisbio (Codolet, France) was used for detection according to the supplier’s instructions. For each assay, a cAMP standard curve was established. EC50 and IC50 values were calculated by GraphPad Prism version 8.4.3 for Windows, GraphPad Software, San Diego, CA, USA, https://www.graphpad.com .
smiles,measurement,setting,value
"CCCCC/C=C\C/C=C\C/C=C\C/C=C\CCCC(=O)O [Arachidonic acid, Arachidonic ((5Z,8Z,11Z,14Z)-eicosatetraenoic) acid]",IC50,"HEK-mAC1; 10 µM isoproterenol, 0.5 mM IBMX",0.00025 µM
same,cAMP level (%); 100%= 10µM Isoproterenol stimulation,"HEK-mAC1; HEK-mAC1, 1e-5 µM",113% and 69%
same,cAMP level (%); 100%= 10µM Isoproterenol stimulation,"HEK-mAC1; HEK-mAC1, 0.0001 µM",98% and 73%
same,cAMP level (%); 100%= 10µM Isoproterenol stimulation,"HEK-mAC1; HEK-mAC1, 0.001 µM",93% and 69%
same,cAMP level (%); 100%= 10µM Isoproterenol stimulation,"HEK-mAC1; HEK-mAC1, 0.003 µM",61%
same,cAMP level (%); 100%= 10µM Isoproterenol stimulation,"HEK-mAC1; HEK-mAC1, 0.006 µM",59%
same,cAMP level (%); 100%= 10µM Isoproterenol stimulation,"HEK-mAC1; HEK-mAC1, 0.01 µM",62% and 55% and 52% and 91% and 64%
same,cAMP level (%); 100%= 10µM Isoproterenol stimulation,"HEK-mAC1; HEK-mAC1, 0.1 µM",77% and 55% and 49% and 97% and 63%
same,cAMP level (%); 100%= 10µM Isoproterenol stimulation,"HEK-mAC1; HEK-mAC1, 0.6 µM",47%
same,cAMP level (%); 100%= 10µM Isoproterenol stimulation,"HEK-mAC1; HEK-mAC1, 60 µM",72% and 67% and 51% and 53% and 65%
same,cAMP level (%); 100%= 10µM Isoproterenol stimulation,"HEK-mAC1; HEK-mAC1, 100 µM",76% and 47% and 57% and 42% and 44% and 60% and 81%
same,Effect on isoproterenol-stimulated cAMP formation in HEK-mAC4,"HEK-mAC4; 10 µM isoproterenol, in words",not attenuated
same,cAMP level (%); 100%= 10µM Isoproterenol stimulation,"HEK-mAC4; HEK-mAC4, 1e-5 µM",136%
same,cAMP level (%); 100%= 10µM Isoproterenol stimulation,"HEK-mAC4; HEK-mAC4, 0.0001 µM",111%
same,cAMP level (%); 100%= 10µM Isoproterenol stimulation,"HEK-mAC4; HEK-mAC4, 0.001 µM",114%
same,cAMP level (%); 100%= 10µM Isoproterenol stimulation,"HEK-mAC4; HEK-mAC4, 0.01 µM",81% and 101% and 120% and 122%
same,cAMP level (%); 100%= 10µM Isoproterenol stimulation,"HEK-mAC4; HEK-mAC4, 0.03 µM",124%
same,cAMP level (%); 100%= 10µM Isoproterenol stimulation,"HEK-mAC4; HEK-mAC4, 0.06 µM",102%
same,cAMP level (%); 100%= 10µM Isoproterenol stimulation,"HEK-mAC4; HEK-mAC4, 0.1 µM",84% and 94% and 116% and 103%
same,cAMP level (%); 100%= 10µM Isoproterenol stimulation,"HEK-mAC4; HEK-mAC4, 0.6 µM",108%
same,cAMP level (%); 100%= 10µM Isoproterenol stimulation,"HEK-mAC4; HEK-mAC4, 1 µM",106% and 107% and 121% and 127% and 99% and 109% and 161% and 110%
same,cAMP level (%); 100%= 10µM Isoproterenol stimulation,"HEK-mAC4; HEK-mAC4, 3 µM",93% and 101% and 129% and 97% and 124% and 139%
same,cAMP level (%); 100%= 10µM Isoproterenol stimulation,"HEK-mAC4; HEK-mAC4, 10 µM",112% and 82% and 111% and 109% and 125% and 147%
same,cAMP level (%); 100%= 10µM Isoproterenol stimulation,"HEK-mAC4; HEK-mAC4, 30 µM",103% and 112% and 97% and 105% and 131%
same,cAMP level (%); 100%= 10µM Isoproterenol stimulation,"HEK-mAC4; HEK-mAC4, 60 µM",95% and 112% and 121% and 114% and 128%
same,cAMP level (%); 100%= 10µM Isoproterenol stimulation,"HEK-mAC4; HEK-mAC4, 100 µM",99% and 78% and 112% and 85% and 100% and 146% and 145%
"CCCCCCCC/C=C\CCCCCCCC(=O)O [Oleic acid, Oleic ((9Z)-octadecenoic) acid]",Effect of lipid on 300 nM Gsα-stimulated mAC7,"mAC7; 20 µM, in words",significantly enhanced
same,mAC7 activity [%] (100% = 300nM Gsα stimulation),"mAC7; Figure 5 B, oleic acid 0.3 µM",100%
same,EC50,mAC7; enhancement of 300 nM Gsα-stimulated activity,6.7 µM
same,"AC activity (%); stimulated by 300nM Gsα, mAC1-C1/mAC2-C2",mAC1-C1/mAC2-C2; Oleic acid 0.3 µM,100%
same,"AC activity (%); stimulated by 300nM Gsα, mAC1-C1/mAC2-C2",mAC1-C1/mAC2-C2; Oleic acid 1 µM,93% and 84% and 72%
same,"AC activity (%); stimulated by 300nM Gsα, mAC1-C1/mAC2-C2",mAC1-C1/mAC2-C2; Oleic acid 3 µM,77% and 90% and 82%
same,"AC activity (%); stimulated by 300nM Gsα, mAC1-C1/mAC2-C2",mAC1-C1/mAC2-C2; Oleic acid 6 µM,78% and 77% and 84%
same,"AC activity (%); stimulated by 300nM Gsα, mAC1-C1/mAC2-C2",mAC1-C1/mAC2-C2; Oleic acid 10 µM,68% and 70% and 67%
same,"AC activity (%); stimulated by 300nM Gsα, mAC1-C1/mAC2-C2",mAC1-C1/mAC2-C2; Oleic acid 20 µM,74% and 77% and 65%
